Active and inactive are the calls of the source. No cut-off for these calls is given here.
Experiments:
[1] = molecular target: Amyloid-beta precursor protein (Homo sapiens) (UniProt P05067); experiment: Inhibition of amyloid beta (1 to 42) (unknown origin) aggregation assessed at 25 uM after 24 to 48 hrs by transmission electron microscopic analysis
SH-SY5Y [2] = experiment: Neuroprotective activity in human SH-SY5Y cells assessed as reduction of H2O2-induced neurotoxicity measured as increase in cell viability at 1 to 20 uM incubated for 24 hrs with H2O2-challenge by MTT assay; assay type: functional, cell-based
[3] = molecular target: Acetylcholinesterase (Electrophorus electricus) (UniProt O42275); experiment: Potency index, ratio of IC50 for rivastigmine to IC50 for test compound against electric eel AChE
Chain of Acetylcholinesterase (Electrophorus electricus) (O42275 24-633 limits assumed): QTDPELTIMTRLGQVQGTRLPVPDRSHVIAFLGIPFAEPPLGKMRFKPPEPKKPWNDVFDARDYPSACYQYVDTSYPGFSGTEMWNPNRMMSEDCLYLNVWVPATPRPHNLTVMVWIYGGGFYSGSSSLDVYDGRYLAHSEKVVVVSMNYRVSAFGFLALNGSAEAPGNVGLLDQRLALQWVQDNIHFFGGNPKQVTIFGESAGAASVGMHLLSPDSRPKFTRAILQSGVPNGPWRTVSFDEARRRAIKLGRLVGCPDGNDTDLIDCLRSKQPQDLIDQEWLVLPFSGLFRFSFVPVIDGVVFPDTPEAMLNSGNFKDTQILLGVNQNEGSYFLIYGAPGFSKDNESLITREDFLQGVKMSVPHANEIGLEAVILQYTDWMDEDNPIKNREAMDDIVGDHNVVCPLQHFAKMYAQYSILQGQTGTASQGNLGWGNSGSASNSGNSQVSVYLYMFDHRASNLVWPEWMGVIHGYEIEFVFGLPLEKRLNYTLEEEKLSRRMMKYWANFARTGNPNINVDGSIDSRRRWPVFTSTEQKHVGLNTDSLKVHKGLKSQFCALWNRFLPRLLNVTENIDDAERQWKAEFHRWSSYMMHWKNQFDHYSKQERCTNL

[4] = Neuroprotective activity in human SH-SY5Y cells assessed as reduction of amyloid beta (1 to 42)-induced neurotoxicity measured as cell viability at 5 to 25 uM preincubated 30 mins followed by amyloid beta (1 to 42) peptide addition for 24 hrs by MTT assay relative to control; assay type: functional
Cholinesterase = Cholinesterase (Equus caballus, UniProt P81908)
Chain of Cholinesterase (P81908 whole entry): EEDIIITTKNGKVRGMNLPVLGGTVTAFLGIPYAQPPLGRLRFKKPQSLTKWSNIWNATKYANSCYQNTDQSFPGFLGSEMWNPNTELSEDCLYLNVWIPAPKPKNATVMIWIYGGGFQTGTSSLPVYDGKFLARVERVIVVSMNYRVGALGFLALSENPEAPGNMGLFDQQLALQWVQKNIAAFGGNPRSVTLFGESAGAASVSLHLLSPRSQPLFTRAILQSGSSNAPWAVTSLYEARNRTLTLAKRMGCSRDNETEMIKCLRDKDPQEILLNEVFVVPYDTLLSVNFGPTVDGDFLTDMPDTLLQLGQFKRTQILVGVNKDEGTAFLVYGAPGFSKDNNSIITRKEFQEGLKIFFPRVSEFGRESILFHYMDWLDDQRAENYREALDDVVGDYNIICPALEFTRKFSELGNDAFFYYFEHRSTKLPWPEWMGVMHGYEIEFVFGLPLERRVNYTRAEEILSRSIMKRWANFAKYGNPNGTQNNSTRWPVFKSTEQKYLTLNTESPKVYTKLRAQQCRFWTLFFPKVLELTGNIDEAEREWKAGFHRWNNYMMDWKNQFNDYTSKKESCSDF
Description: Inhibition of equine serum BuChE preincubated for 5 mins followed by addition of butyrylthiocholine iodide as substrate measured after 2 mins by Ellman's method

[5] = molecular target: Acetylcholinesterase (Electrophorus electricus) (UniProt O42275); experiment: Potency index, ratio of IC50 for galantamine to IC50 for test compound against electric eel AChE
[6] = Cytotoxicity against human SH-SY5Y cells assessed as cell viability at 1 to 50 uM measured after 24 hrs by MTT assay; assay type: toxicity, cell-based
SH-SY5Y [7] = experiment: Neuroprotective activity in human SH-SY5Y cells assessed as reduction of amyloid beta (1 to 42)-induced neurotoxicity measured as cell viability preincubated 30 mins followed by amyloid beta (1 to 42) peptide addition for 24 hrs by MTT assay; assay type: functional, cell-based
[8] = molecular target: Acetylcholinesterase (Electrophorus electricus) (UniProt O42275); details: at 100 µM
Description: Inhibition of electric eel AChE-mediated amyloid beta (1 to 42) (unknown origin) co-aggregation at 100 uM measured after 48 hrs by ThT-assay

[9] = molecular target: Acetylcholinesterase (Electrophorus electricus) (UniProt O42275); experiment: Potency index, ratio of IC50 for tacrine to IC50 for test compound against electric eel AChE
[10] = molecular target: Cholinesterase (Equus caballus) (UniProt P81908); experiment: Potency index, ratio of IC50 donepezil to IC50 for test compound against equine serum BuChE
Chain of Cholinesterase (Equus caballus) (P81908 whole entry): as above

[11] = molecular target: Acetylcholinesterase (Electrophorus electricus) (UniProt O42275); details: at 12 to 42 nM
SH-SY5Y [12] = experiment: Neuroprotective activity in human SH-SY5Y cells assessed as reduction of H2O2-induced neurotoxicity measured as morphological changes at 10 uM incubated for 24 hrs with H2O2-challenge by microscopy; assay type: functional, cell-based
Acetylcholinesterase = Acetylcholinesterase (Electrophorus electricus, UniProt O42275)
Chain of Acetylcholinesterase (O42275 whole entry): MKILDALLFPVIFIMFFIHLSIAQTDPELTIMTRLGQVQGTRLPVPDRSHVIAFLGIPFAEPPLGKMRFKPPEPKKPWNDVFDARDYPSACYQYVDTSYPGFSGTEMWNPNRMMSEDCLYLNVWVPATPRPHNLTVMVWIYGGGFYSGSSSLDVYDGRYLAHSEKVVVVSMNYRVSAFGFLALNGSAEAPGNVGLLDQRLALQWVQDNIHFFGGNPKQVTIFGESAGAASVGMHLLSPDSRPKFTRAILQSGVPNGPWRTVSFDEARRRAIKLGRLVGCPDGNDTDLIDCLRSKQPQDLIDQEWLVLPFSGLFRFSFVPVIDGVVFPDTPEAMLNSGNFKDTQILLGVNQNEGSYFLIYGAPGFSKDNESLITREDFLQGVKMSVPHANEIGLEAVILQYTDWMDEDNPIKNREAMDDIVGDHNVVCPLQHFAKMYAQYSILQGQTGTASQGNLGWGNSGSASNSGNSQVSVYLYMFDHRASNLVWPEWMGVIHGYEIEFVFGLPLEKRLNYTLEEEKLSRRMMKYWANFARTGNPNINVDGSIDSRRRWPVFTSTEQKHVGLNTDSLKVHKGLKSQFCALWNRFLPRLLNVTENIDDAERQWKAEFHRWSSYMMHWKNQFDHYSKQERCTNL
Description: Inhibition of electric eel AChE preincubated for 5 mins followed by addition of acetylthiocholine iodide as substrate measured after 2 mins by Ellman's method

SH-SY5Y [13] = experiment: Neuroprotective activity in human SH-SY5Y cells assessed as reduction of amyloid beta (1 to 42)-induced neurotoxicity measured as morphological changes preincubated 30 mins followed by amyloid beta (1 to 42) peptide addition for 24 hrs by microscopy; assay type: functional, cell-based
[14] = molecular target: Amyloid-beta precursor protein (Homo sapiens) (UniProt P05067); details: at 25 µM
Description: Inhibition of amyloid beta (1 to 42) (unknown origin) self-aggregation at 25 uM measured after 48 hrs by ThT-assay

Chain of Amyloid-beta precursor protein (Homo sapiens) (P05067 whole entry): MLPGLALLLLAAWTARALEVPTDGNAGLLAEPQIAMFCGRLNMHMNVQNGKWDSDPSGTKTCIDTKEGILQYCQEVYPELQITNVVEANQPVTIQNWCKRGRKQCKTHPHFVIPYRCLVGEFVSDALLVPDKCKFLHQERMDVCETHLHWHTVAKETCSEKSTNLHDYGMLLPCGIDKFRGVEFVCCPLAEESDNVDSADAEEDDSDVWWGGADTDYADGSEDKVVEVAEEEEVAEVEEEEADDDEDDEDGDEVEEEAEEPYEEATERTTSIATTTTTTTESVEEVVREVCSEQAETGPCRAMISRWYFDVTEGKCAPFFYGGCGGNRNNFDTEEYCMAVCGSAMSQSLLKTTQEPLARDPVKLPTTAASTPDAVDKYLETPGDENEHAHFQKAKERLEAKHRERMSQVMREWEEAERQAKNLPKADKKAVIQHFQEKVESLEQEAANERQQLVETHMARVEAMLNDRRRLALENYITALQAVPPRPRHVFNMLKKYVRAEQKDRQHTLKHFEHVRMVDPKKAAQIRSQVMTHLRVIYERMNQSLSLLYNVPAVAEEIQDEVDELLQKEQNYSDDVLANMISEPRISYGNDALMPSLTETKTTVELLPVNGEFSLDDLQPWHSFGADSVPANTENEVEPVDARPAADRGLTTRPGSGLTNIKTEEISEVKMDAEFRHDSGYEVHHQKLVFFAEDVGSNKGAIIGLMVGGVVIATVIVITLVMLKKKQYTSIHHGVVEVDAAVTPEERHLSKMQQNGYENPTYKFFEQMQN

Question: What does the source list for CCOC(=O)c1cnc2ccc(F)cc2c1N1CCN(c2cc(C)nc3ncnn23)CC1?
Answer: inhibition [1]: Active; Activity (SH-SY5Y [2]): Active; Ratio IC50 [3]: 106; Activity [4]: 79 - 83%; IC50 (Cholinesterase): 510 nM; Ratio IC50 [5]: 74; Activity [6]: Non-Toxic; Activity (SH-SY5Y [7]): Dose-dependent effect; inhibition [8]: 80.5%; Ratio IC50 [9]: 3.2; Ratio IC50 [10]: 14; inhibition [11]: Active; Activity (SH-SY5Y [12]): Active; IC50 (Acetylcholinesterase): 42 nM; Activity (SH-SY5Y [13]): Active; inhibition [14]: 72.9%

Question: Which results are given for CCOC(=O)c1cnc2ccc(C)cc2c1N1CCN(c2cc(C)nc3ncnn23)CC1?
Answer: IC50 (Cholinesterase): 4090 nM; inhibition [8]: 54.3%; IC50 (Acetylcholinesterase): 2640 nM; inhibition [14]: 52.5%

Question: Which IC50 (Cholinesterase) does the source give for CCOC(=O)c1cnc2cc(C(F)(F)F)ccc2c1N1CCN(c2cc(C)nc3ncnn23)CC1 here?
Answer: The IC50 was 780 nM.

Question: What about the inhibition [8] of the same molecule?
Answer: Its inhibition is 52%.

Question: And the IC50 (Acetylcholinesterase)?
Answer: Its IC50 is 180 nM.

Question: What about the inhibition [14] of the same molecule?
Answer: The inhibition was 43.8%.

Question: For CCOC(=O)c1cnc2c(F)cccc2c1N1CCN(c2ncccc2C#N)CC1, which IC50 (Cholinesterase) is on record?
Answer: The IC50 was 890 nM.

Question: And the inhibition [8]?
Answer: Its inhibition is 50.3%.

Question: And the IC50 (Acetylcholinesterase)?
Answer: Its IC50 is 730 nM.

Question: What about the inhibition [14] of the same molecule?
Answer: The inhibition was 47.4%.

Question: Which IC50 (Cholinesterase) does the source give for CCOC(=O)c1cnc2ccc(F)cc2c1N1CCN(c2ncccc2C#N)CC1 here?
Answer: The IC50 was 1230 nM.

Question: And the inhibition [8]?
Answer: Its inhibition is 59%.

Question: And the IC50 (Acetylcholinesterase)?
Answer: Its IC50 is 580 nM.

Question: And the inhibition [14]?
Answer: The inhibition was 54.9%.

Question: What does the source list for Cc1cc(N2CCN(c3ncccc3C#N)CC2)n2ncnc2n1?
Answer: IC50 (Cholinesterase): 780 nM; inhibition [8]: 49.4%; IC50 (Acetylcholinesterase): 1390 nM; inhibition [14]: 46.8%

Question: Which results are given for CCOC(=O)c1cnc2ccc(OC)cc2c1N1CCN(c2ncccc2C#N)CC1?
Answer: IC50 (Cholinesterase): 1900 nM; IC50 (Acetylcholinesterase): 1100 nM; inhibition [14]: 39.8%

Question: What does the source list for CCOC(=O)c1cnc2cc(C(F)(F)F)ccc2c1N1CCN(c2ncccc2C#N)CC1?
Answer: IC50 (Cholinesterase): 980 nM; inhibition [8]: 47.8%; IC50 (Acetylcholinesterase): 880 nM; inhibition [14]: 44.2%

Question: With CCOC(=O)c1cnc2ccc(OC)cc2c1N1CCN(c2cc(C)nc3ncnn23)CC1 as the molecule, how does the inhibition [1] read?
Answer: Its inhibition is “Active”.

Question: What about the Activity (SH-SY5Y [2]) of the same molecule?
Answer: The Activity was “Active”.

Question: What about the Activity [4] of the same molecule?
Answer: The Activity was 79 - 83%.

Question: What about the IC50 (Cholinesterase) of the same molecule?
Answer: The IC50 was 2010 nM.

Question: What about the Activity [6] of the same molecule?
Answer: The Activity was “Non-Toxic”.

Question: And the Activity (SH-SY5Y [7])?
Answer: Its Activity is “Dose-dependent effect”.

Question: What about the inhibition [8] of the same molecule?
Answer: Its inhibition is 68.7%.

Question: What about the Activity (SH-SY5Y [12]) of the same molecule?
Answer: Its Activity is “Active”.

Question: And the IC50 (Acetylcholinesterase)?
Answer: The IC50 was 760 nM.

Question: And the Activity (SH-SY5Y [13])?
Answer: Its Activity is “Active”.

Question: What about the inhibition [14] of the same molecule?
Answer: Its inhibition is 61.6%.

Question: Which IC50 (Cholinesterase) does the source give for CCOC(=O)c1cnc2ccc(C)cc2c1N1CCN(c2ncccc2C#N)CC1 here?
Answer: Its IC50 is 3000 nM.

Question: What about the IC50 (Acetylcholinesterase) of the same molecule?
Answer: The IC50 was 3490 nM.

Question: What about the inhibition [14] of the same molecule?
Answer: The inhibition was 27.3%.

Question: With CCOC(=O)c1cnc2c(F)cccc2c1N1CCN(c2cc(C)nc3ncnn23)CC1 as the molecule, how does the inhibition [1] read?
Answer: The inhibition was “Active”.

Question: What about the Activity (SH-SY5Y [2]) of the same molecule?
Answer: The Activity was “Active”.

Question: And the Ratio IC50 [3]?
Answer: The Ratio IC50 was 46.

Question: And the Activity [4]?
Answer: The Activity was 79 - 83%.

Question: What about the IC50 (Cholinesterase) of the same molecule?
Answer: The IC50 was 180 nM.

Question: What about the Ratio IC50 [5] of the same molecule?
Answer: Its Ratio IC50 is 32.

Question: What about the Activity [6] of the same molecule?
Answer: Its Activity is “Non-Toxic”.

Question: And the Activity (SH-SY5Y [7])?
Answer: The Activity was “Dose-dependent effect”.

Question: And the inhibition [8]?
Answer: The inhibition was 70.3%.

Question: What about the Ratio IC50 [10] of the same molecule?
Answer: Its Ratio IC50 is 5.

Question: And the Activity (SH-SY5Y [12])?
Answer: Its Activity is “Active”.

Question: What about the IC50 (Acetylcholinesterase) of the same molecule?
Answer: Its IC50 is 97 nM.

Question: What about the Activity (SH-SY5Y [13]) of the same molecule?
Answer: Its Activity is “Active”.

Question: What about the inhibition [14] of the same molecule?
Answer: The inhibition was 64.2%.
